≈ marks a conversion by molar mass, not a printed value.
Key:
Staphylococcus aureus [1] = assay: Antibacterial activity against Staphylococcus aureus NCTC 4163 after 18 hrs by CLSI disc diffusion method; assay type: functional; conditions: NCTC 4163, 18 h
Staphylococcus aureus [2] = assay: Antibacterial activity against Staphylococcus aureus ATCC 25923 after 18 hrs by CLSI disc diffusion method; assay type: functional; conditions: ATCC 25923, 18 h
Staphylococcus aureus [3] = assay: Antibacterial activity against Staphylococcus aureus ATCC 6538 after 18 hrs by CLSI disc diffusion method; assay type: functional; conditions: ATCC 6538, 18 h
[4] = test system: Staphylococcus epidermidis; assay: Antibacterial activity against Staphylococcus epidermidis ATCC 12228 after 18 hrs by CLSI disc diffusion method; assay type: functional; conditions: ATCC 12228, 18 h
[5] = test system: Staphylococcus epidermidis; assay: Antibacterial activity against Staphylococcus epidermidis ATCC 35984 after 18 hrs by CLSI […] method; assay type: functional; conditions: ATCC 35984, 18 h
Bacillus spizizenii = assay: Antibacterial activity against Bacillus subtilis ATCC 6633 after 18 hrs by CLSI disc diffusion method; assay type: functional; conditions: ATCC 6633, 18 h
Bacillus cereus = assay: Antibacterial activity against Bacillus cereus ATCC 11778 after 18 hrs by CLSI disc diffusion method; assay type: functional; conditions: ATCC 11778, 18 h
Enterococcus hirae = assay: Antibacterial activity against Enterococcus hirae ATCC 10541 after 18 hrs by CLSI disc diffusion method; assay type: functional; conditions: ATCC 10541, 18 h
Enterococcus faecalis = assay: Antibacterial activity against Enterococcus faecalis ATCC 29212 after 18 hrs by CLSI disc diffusion method; assay type: functional; conditions: ATCC 29212, 18 h
Micrococcus luteus [6] = assay: Antibacterial activity against Micrococcus luteus ATCC 10240 after 18 hrs by CLSI disc diffusion method; assay type: functional; conditions: ATCC 10240, 18 h
Micrococcus luteus [7] = assay: Antibacterial activity against Micrococcus luteus ATCC 9341 after 18 hrs by CLSI disc diffusion method; assay type: functional; conditions: ATCC 9341, 18 h
Escherichia coli = assay: Antibacterial activity against Escherichia coli ATCC 10538 after 18 hrs by CLSI disc diffusion method; assay type: functional; conditions: ATCC 10538, 18 h
Proteus vulgaris = assay: Antibacterial activity against Proteus vulgaris NCTC 4635 after 18 hrs by CLSI disc diffusion method; assay type: functional; conditions: NCTC 4635, 18 h
Pseudomonas aeruginosa [8] = assay: Antibacterial activity against Pseudomonas aeruginosa ATCC 15442 after 18 hrs by CLSI disc diffusion method; assay type: functional; conditions: ATCC 15442, 18 h
Pseudomonas aeruginosa [9] = assay: Antibacterial activity against Pseudomonas aeruginosa ATCC 27853 after 18 hrs by CLSI disc diffusion method; assay type: functional; conditions: ATCC 27853, 18 h
[10] = test system: Bordetella bronchiseptica; assay: Antibacterial activity against Bordetella bronchiseptica ATCC 4617 after 18 hrs by CLSI disc diffusion method; assay type: functional; conditions: ATCC 4617, 18 h
A549 = assay: Cytotoxicity activity against human A549 cells assessed as reduction in cell viability after 72 hrs by MTT assay; assay type: cell-based; conditions: A549, 72 h
HaCaT = assay: Cytotoxicity activity against human HaCaT cells assessed as reduction in cell viability after 72 hrs by MTT assay; assay type: cell-based
[11] = Selectivity index, ratio of IC50 for human HaCaT cells to MIC for Staphylococcus aureus NCTC 4163; assay type: toxicity; conditions: read-out: Selectivity Index
[12] = Selectivity index, ratio of IC50 for human HaCaT cells to MIC for Bacillus subtilis ATCC 6633; assay type: toxicity; conditions: read-out: Selectivity Index
[13] = Selectivity index, ratio of IC50 for human HaCaT cells to MIC for Enterococcus hirae ATCC 10541; assay type: toxicity; conditions: read-out: Selectivity Index
[14] = Selectivity index, ratio of IC50 for human HaCaT cells to MIC for Micrococcus luteus ATCC 10240; assay type: toxicity; conditions: read-out: Selectivity Index
[15] = Selectivity index, ratio of IC50 for human HaCaT cells to MIC for Escherichia coli ATCC 10538; assay type: toxicity; conditions: read-out: Selectivity Index
[16] = Selectivity index, ratio of IC50 for human HaCaT cells to MIC for Proteus vulgaris NCTC 4635; assay type: toxicity; conditions: read-out: Selectivity Index
[17] = Selectivity index, ratio of IC50 for human HaCaT cells to MIC for Bordetella bronchiseptica ATCC 4617; assay type: toxicity; conditions: read-out: Selectivity Index

CCn1nnnc1NCCc1c[nH]c2ccccc12 gave an MIC (Staphylococcus aureus [1]) of over 999 µM, an MIC (Staphylococcus aureus [2]) of over 999 µM and an MIC (Staphylococcus aureus [3]) of over 999 µM. For the same compound, the MIC [4] was 999 µM (≈ 256 µg/mL), the MIC [5] was 999 µM (≈ 256 µg/mL) and the MIC (Bacillus spizizenii) was 999 µM (≈ 256 µg/mL). The MIC (Bacillus cereus) was 999 µM (≈ 256 µg/mL), the MIC (Enterococcus hirae) was 999 µM (≈ 256 µg/mL) and the MIC (Enterococcus faecalis) was 999 µM (≈ 256 µg/mL). It also gave an MIC (Micrococcus luteus [6]) of 999 µM (≈ 256 µg/mL), an MIC (Micrococcus luteus [7]) of 999 µM (≈ 256 µg/mL) and an MIC (Escherichia coli) of 999 µM (≈ 256 µg/mL). The MIC (Proteus vulgaris) was 999 µM (≈ 256 µg/mL), the MIC (Pseudomonas aeruginosa [8]) was 999 µM (≈ 256 µg/mL) and the MIC (Pseudomonas aeruginosa [9]) was 999 µM (≈ 256 µg/mL). The MIC [10] was 999 µM (≈ 256 µg/mL).
For Clc1ccc(-n2nnnc2Nc2nccs2)cc1Cl, the MIC (Staphylococcus aureus [1]) was 103 µM (≈ 32.3 µg/mL), the MIC (Staphylococcus aureus [2]) was 51 µM (≈ 16 µg/mL) and the MIC (Staphylococcus aureus [3]) was 51 µM (≈ 16 µg/mL). It also gave an MIC [4] of 51 µM (≈ 16 µg/mL), an MIC [5] of 26 µM (≈ 8.14 µg/mL) and an MIC (Bacillus spizizenii) of 6 µM (≈ 1.88 µg/mL). The MIC (Bacillus cereus) was 26 µM (≈ 8.14 µg/mL), the MIC (Enterococcus hirae) was 205 µM (≈ 64.2 µg/mL) and the MIC (Enterococcus faecalis) was 103 µM (≈ 32.3 µg/mL). The MIC (Micrococcus luteus [6]) was 51 µM (≈ 16 µg/mL), the MIC (Micrococcus luteus [7]) was 26 µM (≈ 8.14 µg/mL) and the MIC (Escherichia coli) was 821 µM (≈ 257 µg/mL). For the same compound, the MIC (Proteus vulgaris) was 821 µM (≈ 257 µg/mL), the MIC (Pseudomonas aeruginosa [8]) was 821 µM (≈ 257 µg/mL) and the MIC (Pseudomonas aeruginosa [9]) was 821 µM (≈ 257 µg/mL). For the same compound, the MIC [10] was 410 µM (≈ 128 µg/mL).
With Fc1ccc(-n2nnnc2NCCc2c[nH]c3ccccc23)cc1 the MIC (Staphylococcus aureus [1]) was 50 µM (≈ 16.1 µg/mL), the MIC (Staphylococcus aureus [2]) was 12 µM (≈ 3.87 µg/mL) and the MIC (Staphylococcus aureus [3]) was 25 µM (≈ 8.06 µg/mL). For the same compound, the MIC [4] was 50 µM (≈ 16.1 µg/mL), the MIC [5] was 12 µM (≈ 3.87 µg/mL) and the MIC (Bacillus spizizenii) was 12 µM (≈ 3.87 µg/mL). For the same compound, the MIC (Bacillus cereus) was 6 µM (≈ 1.93 µg/mL), the MIC (Enterococcus hirae) was 25 µM (≈ 8.06 µg/mL) and the MIC (Enterococcus faecalis) was 50 µM (≈ 16.1 µg/mL). The MIC (Micrococcus luteus [6]) was 12 µM (≈ 3.87 µg/mL), the MIC (Micrococcus luteus [7]) was 12 µM (≈ 3.87 µg/mL) and the MIC (Escherichia coli) was 25 µM (≈ 8.06 µg/mL). The MIC (Proteus vulgaris) was 12 µM (≈ 3.87 µg/mL), the MIC (Pseudomonas aeruginosa [8]) was 397 µM (≈ 128 µg/mL) and the MIC (Pseudomonas aeruginosa [9]) was 397 µM (≈ 128 µg/mL). It also gave an MIC [10] of 12 µM (≈ 3.87 µg/mL).
Fc1ccc(-n2nnnc2Nn2cnnc2)cc1Cl gave an MIC (Staphylococcus aureus [1]) of 14 µM (≈ 3.93 µg/mL), an MIC (Staphylococcus aureus [2]) of 29 µM (≈ 8.14 µg/mL) and an MIC (Staphylococcus aureus [3]) of 14 µM (≈ 3.93 µg/mL). For the same compound, the MIC [4] was 29 µM (≈ 8.14 µg/mL), the MIC [5] was 14 µM (≈ 3.93 µg/mL) and the MIC (Bacillus spizizenii) was 57 µM (≈ 16 µg/mL). For the same compound, the MIC (Bacillus cereus) was 29 µM (≈ 8.14 µg/mL), the MIC (Enterococcus hirae) was 29 µM (≈ 8.14 µg/mL) and the MIC (Enterococcus faecalis) was 114 µM (≈ 32 µg/mL). It also gave an MIC (Micrococcus luteus [6]) of 57 µM (≈ 16 µg/mL), an MIC (Micrococcus luteus [7]) of 57 µM (≈ 16 µg/mL) and an MIC (Escherichia coli) of 57 µM (≈ 16 µg/mL). For the same compound, the MIC (Proteus vulgaris) was 57 µM (≈ 16 µg/mL), the MIC (Pseudomonas aeruginosa [8]) was 914 µM (≈ 257 µg/mL) and the MIC (Pseudomonas aeruginosa [9]) was over 914 µM. For the same compound, the MIC [10] was over 914 µM, the IC50 (A549) was 60 µM and the IC50 (HaCaT) was 62 µM. The selectivity ratio [11] was 4.42, the selectivity ratio [12] was 1.08 and the selectivity ratio [13] was 2.13. The selectivity ratio [14] was 1.08, the selectivity ratio [15] was 1.08 and the selectivity ratio [16] was 1.08. It also gave a selectivity ratio [17] of 0.07.
Work on Fc1ccc(-n2nnnc2Nc2nccs2)cc1Cl yielded an MIC (Staphylococcus aureus [1]) of 108 µM (≈ 32 µg/mL), an MIC (Staphylococcus aureus [2]) of 108 µM (≈ 32 µg/mL) and an MIC (Staphylococcus aureus [3]) of 108 µM (≈ 32 µg/mL). It also gave an MIC [4] of 27 µM (≈ 8.01 µg/mL), an MIC [5] of 14 µM (≈ 4.15 µg/mL) and an MIC (Bacillus spizizenii) of 14 µM (≈ 4.15 µg/mL). It also gave an MIC (Bacillus cereus) of 14 µM (≈ 4.15 µg/mL), an MIC (Enterococcus hirae) of 27 µM (≈ 8.01 µg/mL) and an MIC (Enterococcus faecalis) of 54 µM (≈ 16 µg/mL). The MIC (Micrococcus luteus [6]) was 27 µM (≈ 8.01 µg/mL), the MIC (Micrococcus luteus [7]) was 14 µM (≈ 4.15 µg/mL) and the MIC (Escherichia coli) was over 865 µM. The MIC (Proteus vulgaris) was over 865 µM, the MIC (Pseudomonas aeruginosa [8]) was over 865 µM and the MIC (Pseudomonas aeruginosa [9]) was over 865 µM. It also gave an MIC [10] of over 865 µM, an IC50 (A549) of 60 µM and an IC50 (HaCaT) of 60 µM. It also gave a selectivity ratio [11] of 0.55, a selectivity ratio [12] of 4.28 and a selectivity ratio [13] of 2.22. It also gave a selectivity ratio [14] of 2.22, a selectivity ratio [15] of 0.07 and a selectivity ratio [16] of 0.07. It also gave a selectivity ratio [17] of 0.07.
For O=[N+]([O-])c1cc(-n2nnnc2Nc2nc[nH]n2)ccc1Cl, the MIC (Staphylococcus aureus [1]) was 208 µM (≈ 64 µg/mL), the MIC (Staphylococcus aureus [2]) was 208 µM (≈ 64 µg/mL) and the MIC (Staphylococcus aureus [3]) was 208 µM (≈ 64 µg/mL). For the same compound, the MIC [4] was 104 µM (≈ 32 µg/mL), the MIC [5] was 52 µM (≈ 16 µg/mL) and the MIC (Bacillus spizizenii) was 52 µM (≈ 16 µg/mL). For the same compound, the MIC (Bacillus cereus) was 26 µM (≈ 8 µg/mL), the MIC (Enterococcus hirae) was 208 µM (≈ 64 µg/mL) and the MIC (Enterococcus faecalis) was 208 µM (≈ 64 µg/mL). It also gave an MIC (Micrococcus luteus [6]) of 52 µM (≈ 16 µg/mL), an MIC (Micrococcus luteus [7]) of 52 µM (≈ 16 µg/mL) and an MIC (Escherichia coli) of 417 µM (≈ 128 µg/mL). It also gave an MIC (Proteus vulgaris) of 208 µM (≈ 64 µg/mL), an MIC (Pseudomonas aeruginosa [8]) of 834 µM (≈ 257 µg/mL) and an MIC (Pseudomonas aeruginosa [9]) of 834 µM (≈ 257 µg/mL). The MIC [10] was 417 µM (≈ 128 µg/mL).

From ChEMBL document CHEMBL4152339, “Design and synthesis of novel 1H-tetrazol-5-amine based potent antimicrobial agents: DNA topoisomerase IV and gyrase affinity evaluation supported by molecular docking studies” (Eur J Med Chem, 2018)
